In patent publication US12295992B2, “Use of ALDH1A and agonist, catalyst and inhibitor thereof” (SHANGHAI INSTITUTES FOR BIOLOGICAL SCIENCES, CHINESE …, priority 2017, dated 2025):

What was measured:
wild-type C57BL/6 mice [1] = experiment: Self-grooming experiment in wild-type mice; type: in vivo; details: six weeks, within 10 minutes
Protocol: Four-week-aged mice were given a low dose (0.1 mg/g) or a high dose (0.3 mg/g) of DSF (Sigma, dissolved in olive oil) every two days for 6 weeks. The control group was only given the solvent olive oil (Aladdin). The body weight of the mice was weighed weekly. After 6 weeks of gastric administration, the test of mouse behavior was started. The brains of the control and DSF mice were dissected and taken. After freezing with liquid nitrogen, the brain tissue was homogenized, and ATRA was quantified by the HPLC-MS/MS method as described hereinafter. The mice used in the self-grooming experiment were placed in a cage box filled with a filler having a thickness of about 0.5-1 cm for 10 minutes in advance for accommodation. Then, within 10 minutes, the time of self-grooming in mice was recorded by a double-blind experimenter through a stopwatch.

wild-type C57BL/6 mice [2] = experiment: Three-chamber social experiment in wild-type mice; type: in vivo; details: DSF 0.3 mg/g
Protocol: Four-week-aged mice were given a low dose (0.1 mg/g) or a high dose (0.3 mg/g) of DSF (Sigma, dissolved in olive oil) every two days for 6 weeks. The control group was only given the solvent olive oil (Aladdin). The body weight of the mice was weighed weekly. After 6 weeks of gastric administration, the test of mouse behavior was started. The brains of the control and DSF mice were dissected and taken. After freezing with liquid nitrogen, the brain tissue was homogenized, and ATRA was quantified by the HPLC-MS/MS method as described hereinafter. A three-chamber social experiment was performed according to previously reported procedures (Sztainberg et al., 2015). Briefly, a transparent acrylic box for social experiment was divided into three chambers of uniform size with removable gates mounted on the partition board. An inverted iron mesh cup was placed in each of the left and right chambers. Two days before the experiment, C57BL/6 mice, which were from different family and whose age was matched with the test mice, were placed in two cups as strange mice for 1 hour each day for accommodation. Test mice were randomized into groups and accommodated to the test chamber for 1 hour before the test started. Each test mouse was placed in the center chamber for 10 minutes for self-exploration, and the chamber door was closed. In the first stage, a strange mouse was randomly placed in the left or right cup (avoiding positional bias), and the inanimate article was placed in the cup on the other side. […] In the second stage, the test mice were kept in the chamber of the strange mouse for 5 minutes, and then another strange mouse was placed in the cup in which the article was previously placed.

wild-type C57BL/6 mice [3] = experiment: Open field experiment in wild-type mice; type: in vivo; details: DSF 0.1 or 0.3 mg/g vs solvent
Protocol: (§1) Four-week-aged mice were given a low dose (0.1 mg/g) or a high dose (0.3 mg/g) of DSF (Sigma, dissolved in olive oil) every two days for 6 weeks. The control group was only given the solvent olive oil (Aladdin). The body weight of the mice was weighed weekly. After 6 weeks of gastric administration, the test of mouse behavior was started. The brains of the control and DSF mice were dissected and taken. After freezing with liquid nitrogen, the brain tissue was homogenized, and ATRA was quantified by the HPLC-MS/MS method as described hereinafter.
Mice were randomized into groups and placed in an open field instrument (Med Associates) for 30 minutes. The Ethovision automatic recording software (Noldus) was used to record the time spent by the mouse in the central region (⅓ to ⅔ of length on each side of the region) and to calculate the ratio of the distance walked in the central region to the total distance.

wild-type C57BL/6 mice [4] = experiment: Rotating rod experiment in wild-type mice; type: in vivo; details: DSF 0.1 or 0.3 mg/g
Protocol: as §1
After mice were randomized into groups, the motor coordination ability of the mice was recorded using a Rotamex rotarod instrument (Columnbus Instruments). On the same day, the test mice were tested 3 times, each experiment was lasted 5 minutes, and the rotating rod was accelerated from 4 revolutions […]. There were at least 30 minutes between two experiments. The time before the test mice dropped off the rod was automatically recorded by an infrared detection system, and the results of the last test were finally compared.

wild-type C57BL/6 mice [5] = experiment: Elevated cross maze experiment in wild-type mice; type: in vivo; details: DSF 0.1 or 0.3 mg/g vs solvent
Protocol: as §1
Mice were placed in a closed arm of an elevated cross maze (Med Associates) and recording was started for 5 minutes. Image recording was performed using a camera hanged in the air, and the number of times that the mouse entered into the open arm and the closed arm within 5 minutes was recorded and analyzed using ANY-maze software (Stoelting).

[6] = system: ATRA synthesis in the mouse brain; experiment: HPLC-MS/MS quantification of ATRA in mouse brain tissue; type: in vivo, mice; details: six weeks
Protocol: Four-week-aged mice were given a low dose (0.1 mg/g) or a high dose (0.3 mg/g) of DSF (Sigma, dissolved in olive oil) every two days for 6 weeks. The control group was only given the solvent olive oil (Aladdin). The body weight of the mice was weighed weekly. After 6 weeks of gastric administration, the test of mouse behavior was started. The brains of the control and DSF mice were dissected and taken. After freezing with liquid nitrogen, the brain tissue was homogenized, and ATRA was quantified by the HPLC-MS/MS method as described hereinafter. Sample preparation, retinoid extraction and subsequent HPLC-MS/MS analysis were performed according to the previously reported procedures (Kane et al., 2010). The frozen brains of mice were homogenized on ice with 2 mL of 0.9% saline under red light condition. 13-cis-retinoic acid-d5 (20 ng/mL, TRC) was added into the tissue homogenate as an internal reference. […] The samples were analyzed by HPLC on a 2.1×100 mm Supelcosil ABZ+PLUS column (3 urn, Sigma) column. […] The instrumentation was an AB Sciex 4000 QTRAP LC-MS/MS system, and the ATRA component was quantified in the APCI cation mode, and the ATRA content in each sample was corrected using a standard ATRA curve.

[7] = Body weight of mice during DSF administration; type: in vivo; details: DSF 0.1 or 0.3 mg/g, weighed weekly, six weeks
Protocol: as §1

distance of the movement in the open field (wild-type C57BL/6 mice [3]): no difference
time staying in the middle area of the open field (wild-type C57BL/6 mice [3]): no difference
sport ability (rotating rod) (wild-type C57BL/6 mice [4]): did not affect the sport ability
number of times entering the open arm as a percentage of all arm entry (wild-type C57BL/6 mice [5]): no significant difference
SMILES: CCN(CC)C(=S)SSC(=S)N(CC)CC [DSF, disulfiram]
time of self-grooming (wild-type C57BL/6 mice [1]; DSF 0.1 mg/g): 30 s
time of self-grooming (wild-type C57BL/6 mice [1]; DSF 0.3 mg/g): 42 s
increase of time spent in the chamber of familiar social mouse vs solvent group (wild-type C57BL/6 mice [2]): 50%
reduction of time staying in the chamber of strange social mouse vs solvent group (wild-type C57BL/6 mice [2]): 30%
decrease of ATRA level in brain tissue vs solvent group ([6]; DSF 0.1 mg/g oral every other day): 30%
decrease of ATRA level in brain tissue vs solvent group ([6]; DSF 0.3 mg/g oral every other day): 60%
body weight between the groups [7]: no significant difference
